Measured values: patent publication US20260216238A1, “TETRATHIOMOLYBDIC ACID FOR USE IN TREATING COPPER METABOLISM-ASSOCIATED DISEASES OR DISORDERS (WILSON DISEASE)” (Alexion Pharmaceuticals, Inc., priority 2023, published 2026)

Test system: patients with Wilson disease (WD)
Assay: UWDRS Part III total score, functional subscale and individual items (neurological examination)
Assay type: in vivo, human
Protocol: The UWDRS scoring system was developed specifically for the motor and movement disorders associated with chronic copper neurotoxicity in WD. Some individual items/subscales of the UWDRS Part III (arising from a chair, gait, handwriting, and speech) in addition to the UWDRS Parts I, II, and III overall, were assessed to further define the range of burdensome signs and symptoms of WD, so as to further understand the assessment of treatment effects on patients with WD. The UWDRS scores for consciousness (Part I) and abnormal neurologic examination findings (Part III) will be determined by a trained neurologist rater who is blinded to study treatment randomization. These scores were used to provide a rigorous dataset for evaluating changes from baseline.
Unified Wilson Disease Rating Scale (Parts I, II, and III): The UWDRS is a clinical rating scale designed to evaluate the neurological manifestations of WD that generally can be divided into 3 movement disorder syndromes: dystonic, ataxic, and Parkinsonian syndrome. The UWDRS comprises 3 parts: UWDRS Part I (level of consciousness, item 1), UWDRS Part II (a patient-reported review of daily activity items [disability], items 2 to 11), and UWDRS Part III (a detailed neurological examination, items 12 to 34).
The UWDRS Part I and Part III were assessed by a neurologist who is blinded to the treatment randomization, while UWDRS Part II may be reported to a non-blinded member of the study team by the patient, family member, or caregiver. The UWDRS has not been formally evaluated in adolescents. However, the components of Part I (level of consciousness), Part II (patient or caregiver-reported disability) and Part III (neurologic examination findings) were not fundamentally different between adults and adolescents. Patients aged 12 years and older were expected to be able to comply with UWDRS assessments.
Pooled results from all such participants will be integrated together into one timeline to allow analyses of changes in UWDRS, long-term copper control, and long-term safety laboratory data.
Endpoints (directly measured non-ceruloplasmin-bound copper [dNCC], UWDRS III (rater blinded) total and individual item scores, Clinical Global Impression-Improvement [CGI-I]) were evaluated at baseline (BL) and Week 48 (W48). Normalization (score decrease to 0), improvement (≥1 point decrease), stability (no change), or worsening (≥1 point increase) of total and individual UWDRS III item scores were evaluated at W48.

[1] = Week 144, Study 301 TTM long term set
[2] = difference of changes Wk 48 - BL

Substance: bis-choline tetrathiomolybdate [TTM]
- UWDRS Part III-handwriting (0-4) change from baseline, Mean [1]: −0.5
- UWDRS Part III-speech (0-4) change from baseline, LSM [1]: −0.3
- UWDRS Part III-speech (0-4) change from baseline, Mean [1]: −0.2
- UWDRS symptom: Arising from chair (Wk 48): 86
- UWDRS symptom: Arm and hand Dystonia (Wk 48): 67
- UWDRS symptom: Cervical Dystonia (Wk 48): 82
- UWDRS symptom: Chorea (Wk 48): 91
- UWDRS symptom: Facial Expression (Wk 48): 58
- UWDRS symptom: Finger Taps (Wk 48): 59
- UWDRS symptom: Finger to Nose (Wk 48): 76
- UWDRS symptom: Gait (Wk 48): 63
- UWDRS symptom: Handwriting (Wk 48): 71
- UWDRS symptom: Head Tremor (Wk 48): 89
- UWDRS symptom: Involuntary Crying (Wk 48): 99
- UWDRS symptom: Jaw Tremor (Wk 48): 99
- UWDRS symptom: Leg Ability (Wk 48): 66
- UWDRS symptom: Oculomotor (Wk 48): 87
- UWDRS symptom: Postural Arm Tremor (Wk 48): 58
- UWDRS symptom: Postural Leg Tremor (Wk 48): 73
- UWDRS symptom: Posture (Wk 48): 71
- UWDRS symptom: Pyramidal Signs (Wk 48): 87
- UWDRS symptom: RAM of Hands (Wk 48): 62
- UWDRS symptom: Rigidity (Wk 48): 72
- UWDRS symptom: Speech (Wk 48): 51
- UWDRS symptom: Stereotyped Actions (Wk 48): 89
- UWDRS symptom: Tremor at rest (Wk 48): 76
- UWDRS symptom: Wing-beating tremor (Wk 48): 67
- UWDRS symptom: Arising from chair, Change (Wk 48 - BL) (Wk 48 - BL): 1
- UWDRS symptom: Arm and hand Dystonia, Change (Wk 48 - BL) (Wk 48 - BL): 3
- UWDRS symptom: Cervical Dystonia, Change (Wk 48 - BL) (Wk 48 - BL): 8
- UWDRS symptom: Chorea, Change (Wk 48 - BL) (Wk 48 - BL): 1
- UWDRS symptom: Facial Expression, Change (Wk 48 - BL) (Wk 48 - BL): 1
- UWDRS symptom: Finger Taps, Change (Wk 48 - BL) (Wk 48 - BL): 15
- UWDRS symptom: Finger to Nose, Change (Wk 48 - BL) (Wk 48 - BL): 9
- UWDRS symptom: Gait, Change (Wk 48 - BL) (Wk 48 - BL): 4
- UWDRS symptom: Handwriting, Change (Wk 48 - BL) (Wk 48 - BL): 16
- UWDRS symptom: Head Tremor, Change (Wk 48 - BL) (Wk 48 - BL): 5
- UWDRS symptom: Involuntary Crying, Change (Wk 48 - BL) (Wk 48 - BL): 0
- UWDRS symptom: Jaw Tremor, Change (Wk 48 - BL) (Wk 48 - BL): 0
- UWDRS symptom: Leg Ability, Change (Wk 48 - BL) (Wk 48 - BL): 4
- UWDRS symptom: Oculomotor, Change (Wk 48 - BL) (Wk 48 - BL): −2
- UWDRS symptom: Postural Arm Tremor, Change (Wk 48 - BL) (Wk 48 - BL): 9
- UWDRS symptom: Postural Leg Tremor, Change (Wk 48 - BL) (Wk 48 - BL): 5
- UWDRS symptom: Posture, Change (Wk 48 - BL) (Wk 48 - BL): 4
- UWDRS symptom: Pyramidal Signs, Change (Wk 48 - BL) (Wk 48 - BL): −2
- UWDRS symptom: RAM of Hands, Change (Wk 48 - BL) (Wk 48 - BL): 14
- UWDRS symptom: Rigidity, Change (Wk 48 - BL) (Wk 48 - BL): 14
- UWDRS symptom: Speech, Change (Wk 48 - BL) (Wk 48 - BL): 7
- UWDRS symptom: Stereotyped Actions, Change (Wk 48 - BL) (Wk 48 - BL): −4
- UWDRS symptom: Tremor at rest, Change (Wk 48 - BL) (Wk 48 - BL): 1
- UWDRS symptom: Wing-beating tremor, Change (Wk 48 - BL) (Wk 48 - BL): 3
- UWDRS symptom: Arising from chair, Difference (TTM − SoC) [2]: 4
- UWDRS symptom: Arm and hand Dystonia, Difference (TTM − SoC) [2]: 3
- UWDRS symptom: Cervical Dystonia, Difference (TTM − SoC) [2]: 5
- UWDRS symptom: Chorea, Difference (TTM − SoC) [2]: 6
- UWDRS symptom: Facial Expression, Difference (TTM − SoC) [2]: 4
- UWDRS symptom: Finger Taps, Difference (TTM − SoC) [2]: 20
- UWDRS symptom: Finger to Nose, Difference (TTM − SoC) [2]: 6
- UWDRS symptom: Gait, Difference (TTM − SoC) [2]: 2
- UWDRS symptom: Handwriting, Difference (TTM − SoC) [2]: 13
- UWDRS symptom: Head Tremor, Difference (TTM − SoC) [2]: 9
- UWDRS symptom: Involuntary Crying, Difference (TTM − SoC) [2]: 3
- UWDRS symptom: Jaw Tremor, Difference (TTM − SoC) [2]: 0
- UWDRS symptom: Leg Ability, Difference (TTM − SoC) [2]: 11
- UWDRS symptom: Oculomotor, Difference (TTM − SoC) [2]: 9
- UWDRS symptom: Postural Arm Tremor, Difference (TTM − SoC) [2]: 8
- UWDRS symptom: Postural Leg Tremor, Difference (TTM − SoC) [2]: 9
- UWDRS symptom: Posture, Difference (TTM − SoC) [2]: 1
- UWDRS symptom: Pyramidal Signs, Difference (TTM − SoC) [2]: 4
- UWDRS symptom: RAM of Hands, Difference (TTM − SoC) [2]: 31
- UWDRS symptom: Rigidity, Difference (TTM − SoC) [2]: 5
- UWDRS symptom: Speech, Difference (TTM − SoC) [2]: 0
- UWDRS symptom: Stereotyped Actions, Difference (TTM − SoC) [2]: 1
- UWDRS symptom: Tremor at rest, Difference (TTM − SoC) [2]: 4
- UWDRS symptom: Wing-beating tremor, Difference (TTM − SoC) [2]: 9
